± gives the expanded uncertainty stated by the source.
Conditions: for viscosity: 101.33 kPa, Liquid, Falling or rolling sphere viscometry

viscosity (348.15 K): 108.86 ± 3.6 mPa·s | viscosity (351.15 K): 92.99 ± 2.8 mPa·s | viscosity (353.15 K): 84.17 ± 2.3 mPa·s | viscosity (358.15 K): 66.28 ± 1.6 mPa·s | Normal melting temperature (Crystal, DTA): 74.16 ± 2 °C
Compound: Cl.Cn1ccnc1 [1-methylimidazolium chloride]
